Experimental data: patent publication US20170071208A1, “COMPOSITIONS FOR MOSQUITO CONTROL AND USES OF SAME” (Forrest Innovations Ltd., priority 2014, published 2017)

Tests used:
Format in all cases: in vivo, Aedes aegypti
[1] = test system: Ae. aegypti mosquitoes (RJ strain); experiment: dsRNA treatment of larvae (soaking, or soaking plus feeding), then pyrethroid adulticide bottle bioassay of adult females
Procedure: (§1) Third instar larvae were treated (in groups of 100 larvae) in a final volume of 3 mL of dsRNA solution in autoclaved water (0.5 μg/μL for sodium channel (AAEL008297), PgP (AAEL010379) and Ago3 (AAEL007823) dsRNA, or 0.1 μg/μL for CYP9J26 (JF924909.1). The control group was kept in 3 ml sterile water only. Larvae were soaked in the dsRNA solutions for 24 hr at 27° C., and then transferred into new containers (300 larvae/1500 mL of chlorine-free tap water), which were also maintained at 27° C., and were provided 6 mg/100 mL lab dog/cat diet (Purina Mills) suspended in water as a source of food on a daily basis. As pupae developed, they were transferred to individual vials to await eclosion and sex sorting. For bioassays purpose only females up to five days old were used. See Flowchart 1, FIG. 1 for detailed explanation of this experiment.
After soaking in the dsRNA solutions for 24 hr at 27° C., the larvae were transferred into new containers (300 larvae/1500 mL of chlorine-free tap water), and were provided agarose cubes containing 300 μg of dsRNA once a day for a total of four days. The larvae were reared until adult stage. For bioassays purpose only females up to five days old are used. See Flowchart 2, FIG. 2 for detailed explanation of this experiment.
Bottles were prepared following the Brogdon and McAllister (1998) protocol [Brogdon and McAllister (1998) Emerg Infect Dis 4:605-613]. Fifteen-twenty non-blood-fed females from each site were introduced in 250 mL glass bottles impregnated with different concentrations of deltamethrin (Sigma-Aldrich) in 1 ml acetone. Each test consisted of four impregnated bottles and one control bottle. The control bottle contained acetone with no insecticide. At least three tests were conducted for each insecticide and population. Immediately prior to use, all insecticide solutions were prepared fresh from stock solutions. At 15, 30 and 45 min intervals, the number of live and dead mosquitoes in each bottle was recorded. The mortality criteria included mosquitoes with difficulties flying or standing on the bottle's surface. Mosquitoes that survived the appropriate dose for insecticide were considered to be resistant [Brogdon and McAllister (1998), supra].
Cubes of dsRNA-containing mosquito food were prepared as follows: First, 300 μg of dsRNA were mixed with 30 μg of Polyethylenimine 25 kD linear (Polysciences) in 200 μL of sterile water. Then, a suspension of ground mosquito larval food (6 grams/100 mL) was prepared with 2% agarose (Fisher Scientific). The food/agarose mixture was heated to 55° C. and 200 μL of the mixture was then transferred to the tubes containing 200 μL of dsRNA+PEI or water only (control). The mixture was then allowed to solidify into a gel. The solidified gel containing both the food and dsRNA was cut into small pieces (approximately 1 mm thick) using a razor blade, which were then used to feed mosquito larvae in water.

[2] = test system: sodium channel (AAEL008297) mRNA; experiment: qPCR analysis of sodium channel mRNA expression after dsRNA treatment
Procedure: as §1
Total RNA was extracted from groups of five Ae. aegypti fourth instar larvae and early adult male/female Ae. aegypti, using TRIzol (Invitrogen, Carlsbad, Calif., USA) according to the manufacturer's instructions. RNA was treated with amplification grade DNase I (Invitrogen) and 1 μg was used to synthesize cDNA using a First Strand cDNA Synthesis kit (Invitrogen). PCR products were purified using a QIAquick PCR purification kit (Qiagen). The MEGAscript RNAi kit (Ambion) was then used for in vitro transcription and purification of dsRNAs. See Flowchart 4, FIG. 4 for detailed explanation production off dsRNA.
(§2) Approximately 1000 ng first-strand cDNA obtained as described previously was used as template. The qPCR reactions were performed using SYBR® Green PCR Master Mix (Applied Biosystems) following the manufacturer's instructions. […] Raw quantification cycle (Cq) values normalized against those of the tubulin and S7 standards were then used to calculate the relative expression levels in samples using the 2^−ΔΔct method [Livak & Schmittgen, (2001) Methods. […]

[3] = test system: P-glycoprotein (AAEL010379) mRNA; experiment: qPCR analysis of P-glycoprotein mRNA expression after dsRNA treatment; conditions: vs water
Procedure: as §1
Total RNA was extracted from groups of five Ae. aegypti fourth instar larvae and early adult male/female Ae. aegypti, using TRIzol (Invitrogen, Carlsbad, Calif., USA) according to the manufacturer's instructions. […]
as §2, with “template.” for “template. The qPCR reactions were performed using SYBR® Green PCR Master Mix (Applied Biosystems) following the manufacturer's instructions.”

[4] = test system: Ae. aegypti Rockefeller strain; experiment: Oviposition assay after larval dsRNA soaking plus feeding; conditions: larvae soaked 24 h in 0.5 μg/μL dsRNA, fed twice with agarose plug containing dsRNA; 15 engorged females per cage; vs water control
Procedure: FIG. 12 is a flowchart illustration depicting introduction of dsRNA into mosquito larvae via soaking with different doses of “naked” dsRNA plus additional larvae feeding with food-containing dsRNA. Step a) 100 larvae from A. aegypti Rockefeller strain (3rd instar) were soaked for 24 hours with the respective dsRNAs (concentration range from 0.02-0.5 μg/μL) or only in water and were then fed 2 times with food plus agarose 2% containing dsRNA until they reach adult stage (Step b). Step c) The adults arising were allowed to copulate for 3-5 days. Step d) mosquitoes were fed with defibrinated sheep blood. Step e) after blood feeding 15 fully-engorged females were transferred into 3 small cages to be assayed for oviposition. Step f) the total number of laid eggs and the percentage of hatched eggs were counted. FIGS. 13A-B are graphs illustrating larvae from Ae. aegypti Rockefeller strain (3rd instar) soaked for 24 hours in 0.5 μg/μL of Aubergine (Aub) or Argonaute-3 (Ago) dsRNAs or water only. […] (FIG. 13A) The total number of laid eggs and the percentage of hatched eggs were counted (FIG. 13B). […]
(§3) Five days after the blood meal, an ovipositon cup was place inside each cage containing 15 females to allow the females to lay their eggs. […] The number of eggs laid was counted and used to check the viability and egg hatching rate.

[5] = test system: Ae. aegypti Rockefeller strain; experiment: Egg hatching rate after larval dsRNA soaking plus feeding; conditions: larvae soaked 24 h in 0.5 μg/μL dsRNA, fed twice with agarose plug containing dsRNA; vs water control
Procedure: FIG. 12 is a flowchart illustration depicting introduction of dsRNA into mosquito larvae via soaking with different doses of “naked” dsRNA plus additional larvae feeding with food-containing dsRNA. Step a) 100 larvae from A. aegypti Rockefeller strain (3rd instar) were soaked for 24 hours with the respective dsRNAs (concentration range from 0.02-0.5 μg/μL) or only in water and were then fed 2 times with food plus agarose 2% containing dsRNA until they reach adult stage (Step b). Step c) The adults arising were allowed to copulate for 3-5 days. Step d) mosquitoes were fed with defibrinated sheep blood. Step e) after blood feeding 15 fully-engorged females were transferred into 3 small cages to be assayed for oviposition. Step f) the total number of laid eggs and the percentage of hatched eggs were counted. […] (FIG. 13A) The total number of laid eggs and the percentage of hatched eggs were counted (FIG. 13B). […]
as §3
To check the viability of the eggs the oviposition paper were kept to dry and embrionate for a period minimum of 5 days. […] The hatching rate (HR) for each treatment were calculated as follow: HR=total number of hatched larvae/total number of eggs oviposited). […]

## sodium channel dsRNA: dsRNA targeting Ae. aegypti sodium channel (AAEL008297), SEQ ID NO: 1825
[1]; 3rd instar larvae soaked 24 h in 0.5 μg/μL naked dsRNA vs water, adult females exposed to deltamethrin 0.5 μg/bottle
  susceptibility of adult mosquitoes to deltamethrin (mortality rate): increased susceptibility
[1]; 3rd instar larvae soaked 24 h in 0.5 μg/μL naked dsRNA vs water, adult females exposed to deltamethrin 0.5 μg/bottle, listed as dsRNA against sodium channel
  susceptibility of adult mosquitoes to deltamethrin (mortality rate): increased substantially the susceptibility
[1]; larvae soaked 24 h in 0.5 μg/μL dsRNA, then fed 4 times with food-containing dsRNA, adult females, deltamethrin 0.5 μg/bottle
  susceptibility of adult mosquitoes to deltamethrin (mortality rate): increased susceptibility
[1]; larvae soaked 24 h in 0.5 μg/μL dsRNA, then fed 4 times with food-containing dsRNA, adult females, deltamethrin 0.5 μg/bottle, listed as dsRNA against sodium channel
  susceptibility of adult mosquitoes to deltamethrin (mortality rate): increased the susceptibility
[2]; adult female mosquitoes soaked as larvae, collected before deltamethrin treatment, vs water
  sodium channel mRNA expression level: decreased expression
[2]; dead female mosquitoes collected after exposure to deltamethrin, compared to water-treated mosquitoes
  sodium channel mRNA expression level: striking decrease
[2]; larvae soaked 24 h in dsRNA, 24 and 48 hours after the end of dsRNA treatment, vs water
  sodium channel mRNA levels: decreased mRNA levels

B1: Cytochrome p450 (CYP9J26): dsRNA targeting Cytochrome p450 (CYP9J26, JF924909.1), SEQ ID NO: 1824 (nucleic acid)
chain: CTTCAACGACTTCGTCCGATCAATTTACAACAAATATCCTGGAGTGAAGGTTTTCGGAATGTTCGAGACGATCACGCCGTTCTTCGTGATTCGCGATCCGGAGTTGATCAAGCAGATCGGCATCAAGGATTTCGATCACTTCGTTGACCACCGTCCGACGTTCGGACTGGACGATGAAACGGCGGAGCATCCGAAGGCGCTGTTCCGCAAGACGCTGTTCTCGATGACCGGTCAACGGTGGAAGGAGATGCGCGCTACGCTGAGTCCGGCTTTTACCGGCAGTAAGATGCGACAGATGTTCTCGCTGATGAGCGAATGCTGCGACGAAATGATGAAGCACTACCTGGACAAGGCGAAGGGCACGGGAAGGGTGGAAGTCGAAATGAAGGACTTGCTGAGTCGAATCACTATCAATGTGATTGCGTCGTGTGCTTTTGGAATCAAGGTGGAC
modifications: double stranded RNA
[1]; larvae soaked 24 h in 0.1 μg/μL dsRNA, then fed 4 times with food-containing dsRNA, adult females, deltamethrin 0.5 μg/bottle, first 15 minutes of contact
  susceptibility of adult mosquitoes to deltamethrin (mortality rate): more sensitive
[1]; larvae soaked 24 h in 0.1 μg/μL dsRNA, then fed 4 times with food-containing dsRNA, adult females, deltamethrin 0.5 μg/bottle, first 15 minutes of contact, listed as CYP9J29 dsRNA
  susceptibility of adult mosquitoes to deltamethrin (mortality rate): affects the susceptibility

B2: PgP: dsRNA targeting P-glycoprotein (AAEL010379), SEQ ID NO: 1822 (nucleic acid)
chain: TGGAAAAGTTGACATTGACGGGATCACGACAACTGATTTCCAGCTTGGCCGCATACGTTCACAAATGGGTCTCGTATCGCAAGAACCTGTTCTGTTTGATCGCACCATCGCGGAAAATATTGCTTATGGTGACAACACTCGCGAGATAAGCATGCCGGAGATAATCGAGGCATCCAAAATGGCAAACATTCACGAATTCATCGTCAATCTACCGAAGGGGTATGACACTAGCCTAGGAACCAAAGGAGCTCAATTGTCTGGTGGCCAAAAGCAACGTATTGCTATAGCTCGTGCTTTGGTTAGAAATCCACGAATCC
modifications: double stranded RNA
[3]; adult mosquitoes soaked with dsRNA as larvae
  PgP mRNA expression: reached normal levels
[3]; larvae soaked 24 h in dsRNA, 24 and 48 hours after the end of dsRNA treatment
  PgP mRNA levels: decreased mRNA levels

B3: Aub: dsRNA targeting PIWI protein Aub (AAEL007698), SEQ ID NO: 1858 (nucleic acid)
chain: TCTTCTCCACCACAGCCAATGGCGTACAGGCTGGAGAACAGGCAGATTGGACGGCCCATTTCCGTAACAATCCCATGTTCGCTACGGTGCGGTTGACGCGATGGTATTTGATCGTACCGAACCGGGCTTCACGTGAGGCCAACGATTTCCTGGGCTGCATGATTCAAGCCGCACGCGGTATGCGATTTGAGATTAGTAACTGTGAGGTGGTCACCATTCCGGACGACAACCCAGGTACCTATGTGCGAACATTGGACAATCTGCTGAATAAGGACCCGCAGTTGGTGATGTGCGTCGTGACCAACAATAAGGCCGATCGGTACACCGCCATCAAGAAGAAATGTTGCGTTGATCGTGCCATCCCAACGCAAGTCATGGTACAAAAAACGATCACACCAAAGGGTGGTAATGTACGAACACTCATGTCCGTG
modifications: double stranded RNA
[4]
  oviposition rate (total number of laid eggs): no difference
[5]
  number of hatched eggs (hatchability): 50%
